The source of these data is US11400019B2, “Sustained release drug delivery systems with reduced impurities and related methods” (DURECT CORPORATION, priority 2020, dated 2022).

Format in all cases: physicochemical
Data set [1] is described as follows: In vitro cumulative release of bupivacaine, USP Apparatus II dissolution, f1/f2 comparison. The following applies: pre-heated in oven at 225° C. for 4 hours. The method, then: The in vitro cumulative release of bupivacaine from formulations was determined as follows.
The bupivacaine formulations, other than the heat-stressed formulation, were prepared by dissolving appropriate amounts of bupivacaine in appropriate amounts of benzyl alcohol (BA), adding an appropriate amount of sucrose acetate isobutyrate (SAIB), and stirring not less than 45 minutes at about 35° C. For the heat-stressed SAIB formulation, the same process was followed except the SAIB was pre-heated in an oven at 225° C. for 4 hours before use. A portion of the pre-heated SAIB was tested and found to have 98% SAIB remaining.
Dissolution was measured using a USP Apparatus II. Approximately 0.5 mL of each formulation was loaded via cannula and syringed into 900 mL±5 mL of 37±0.5° C. dissolution media (phosphate buffer at pH 7.4±0.05 with 0.03% sodium lauryl sulfate). The USP Apparatus II was set at 50 RPM, and samples were collected at 1, 4, 8, 12, 18, 24, 36, 48, and 72 hours. The number of replicates (N) per sample per time point varied as described above. The collected samples were assayed for bupivacaine content by HPLC.
The dissolution profile comparisons were conducted using a difference factor (f1) and a similarity factor (f2) approach (FDA Guidance for Industry “Dissolution Testing of Immediate Release Solid Oral Dosage Forms” August 1997). […]

A short description of another data set: Metal content by ICP-MS. On the procedure:
Sucrose acetate isobutyrate was tested for metal content as follows. The sample was prepared with a 0.1 g weighed portion mixed with 2 mL nitric acid and 0.5 mL hydrochloric acid for 1 hour on a block digester set at 110° C. After cooling, 0.5 mL of 30% hydrogen peroxide was added, and the digestion resumed for 30 minutes (the material appeared dissolved). After cooling, internal standard solution was added and dilution with purified water to 20 g produced a solution for ICP-MS analysis.
Formulation A was compounded using steel compounding tanks. Silicone tubing was used to transfer Formulation A. Formulation A was filled into glass vials, which were then sealed with fluorocarbon-coated stoppers.
Formulation A was tested for metal content as follows. The sample was prepared with a 0.2 g weighed portion mixed with 2 mL nitric acid, 1 mL hydrochloric acid, and 1 mL hydrofluoric acid, then digested in a closed-vessel microwave system (the material appeared dissolved). After cooling, internal standard solution was added and dilution with purified water to 50 g produced a solution for ICP-MS analysis.

Data set [2] in a line: Peroxide content of SAIB and benzyl alcohol versus bupivacaine N-oxide. The method, then:
The peroxide content for several lots of sucrose acetate isobutyrate were determined by potentiometric titration involving iodometric titration. The bupivacaine N-oxide levels in samples of Formulation A were determined using HPLC with UV detection.
The bupivacaine N-oxide data in Table 10.1 are for the longest available stability time points for each set of samples.
All of the benzyl alcohol compositions had peroxide values of less than […]. The peroxide value can be converted to peroxide content, expressed as hydrogen peroxide, by multiplying PV by 17. […] The maximum contribution to peroxide content from benzyl alcohol is 85 ppm divided by 3, or 28 ppm.

Data set [3] can be described thus: 2,6-dimethylaniline standard in clear, amber and red glassware, HPLC with electrochemical detection. On the procedure: A series of experiments was conducted examining the effects of amber and red colored glassware on the stability of the 2,6-dimethylaniline reference standard, using electrochemical detection, at a concentration of 3 ng/mL in an aqueous buffer/methanol solution.
In Experiment 1, the 2,6-dimethylaniline was prepared at a concentration of 3 ng/mL in a clear, colorless glass 100 mL volumetric flask. Aliquots were transferred into clear HPLC glass vials, and assayed against external standards. The 3 injections of the 2,6-dimethylaniline were consistently near 3 ng/mL.
In Experiment 2, the 2,6-dimethylaniline solution at 3 ng/mL prepared in a clear, colorless glass 100 mL volumetric flask was transferred to amber HPLC vials.
An aliquot was transferred into a clear HPLC glass vial, and assayed against external standards. The sample injection had the same 2,6-dimethylaniline concentration value as that in Experiment 1.
In Experiment 4, the 2,6-dimethylaniline solution at 3 ng/mL prepared in the red colored glass 100 mL volumetric flask coated with RAY-SORB® was transferred to an amber HPLC vial.

“And” between values parts separate entries of the source, which are not always exact repeats. Identical values can stand only once.

sucrose acetate isobutyrate [SAIB] showed an SAIB remaining in data set [1] of 98%. The Gold content in “Metal content by ICP-MS” (detection limit 0.02) is recorded as 0.4 ppm. Also, the Tin content in “Metal content by ICP-MS” (detection limit 0.04) is on record as 0.06 ppm. The molecule further gave an Iron content in “Metal content by ICP-MS” (detection limit 1) of 2 ppm. Besides, in data set [2] (linear regression, FIG. 2), the “peroxide in SAIB corresponding to 0.8% bupivacaine N-oxide” value was found to be 232.5 ppm and the “peroxide in SAIB corresponding to 1.0% bupivacaine N-oxide” value is on record as 296.4 ppm.

For the molecule `Cc1cccc(C)c1N` [2,6-dimethylaniline], the “Observed Concentration of Standard” value in data set [3] (Experiment 1: clear flask, clear HPLC vial, nominal 3 ng/mL) was about 3 ng/mL; in data set [3] (Experiment 1: clear flask, clear HPLC vial, nominal 3 ng/mL, listed as 2,6-Dimethlylaniline Standard), 3.0 ng/mL and 3.1 ng/mL; in data set [3] (Experiment 2: clear flask, amber HPLC vial, listed as 2,6-Dimethlylaniline Standard), 24.5 ng/mL and 28.4 ng/mL and 34.6 ng/mL and 38.1 ng/mL; in data set [3] (Experiment 3: red RAY-SORB flask, clear HPLC vial) it was 3.0 ng/mL; in data set [3] (Experiment 4: red flask, amber HPLC vial) it was 14.9 ng/mL. Moreover, the “2,6-dimethylaniline content, times higher than Experiments 1 and 3” value in data set [3] (Experiment 4, amber HPLC vial) was “approximately 5 times”.

Turning to `OCc1ccccc1` [benzyl alcohol], the “effective peroxide contribution to formation of bupivacaine N-oxide” value in data set [2] (8.5 ppm divided by 3) is under 2.8 ppm. In addition, the “peroxide content, expressed as hydrogen peroxide” value in data set [2] (PV multiplied by 17) was under 8.5 ppm. Besides, in data set [2] (all lots used for Formulation A samples), the “peroxide value (PV)” value is listed as “less than 0.5”.
